Legend:
769-P (Kidney Carcinoma) = test: Bliss excess, mean over the matrix (fraction); higher = more synergy
Procedure, shortened: (§1)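 Cell lines in DMEM/F12 or RPMI with 10% FBS were plated in 1536-well plates, held 24 hours at 37°C, 5% CO2, then given two-drug dose matrices for 72 hours (DMSO typically 0.2%). Viability was read by CellTiter-Glo 2.0 luminescence and scaled as inhibition from 0 (vehicle wells) to 1 (blank wells). Combination Emax is the second-highest inhibition in the matrix; Bliss excess is observed combination effect minus expected EA + EB − EA·EB, EA and EB being single-agent effects.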

[1] = test system: A253 (Head and Neck Carcinoma); test: as above
Procedure, shortened: as §1

[2] = test system: CAL-27 (Oral Cavity Carcinoma); test: as above
Procedure, shortened: as §1

[3] = test system: CESS (Acute Myeloid Leukemia); test: as above
Procedure, shortened: as §1

[4] = test system: ESO26 (Esophageal Adenocarcinoma); test: as above
Procedure, shortened: as §1

EW-7 (Ewing's Sarcoma) = test: as above
Procedure, shortened: as §1

[5] = test system: G-402 (Other Solid Carcinomas); test: as above
Procedure, shortened: as §1

[6] = test system: JHH-2 (Hepatocellular Carcinoma); test: as above
Procedure, shortened: as §1

KP-N-YN (Neuroblastoma) = test: as above
Procedure, shortened: as §1

[7] = test system: KYSE-220 (Esophageal Squamous Cell Carcinoma); test: as above
Procedure, shortened: as §1

[8] = test system: MHH-ES-1 (Ewing's Sarcoma); test: as above
Procedure, shortened: as §1

[9] = test system: NCI-H1651 (Lung Adenocarcinoma); test: as above
Procedure, shortened: as §1

[10] = test system: NCI-H441 (Lung Adenocarcinoma); test: as above
Procedure, shortened: as §1

PEO1 (Ovarian Carcinoma) = test: as above
Procedure, shortened: as §1

[11] = test system: UACC-812 (Breast Carcinoma); test: as above
Procedure, shortened: as §1

[12] = test system: A253 (Head and Neck Carcinoma); test: combination Emax (second highest fraction inhibited in the dose matrix, 72 h); higher = more inhibition; extreme values may be limits of the assay
Procedure, shortened: as §1

[13] = test system: DMS-53 (Small Cell Lung Carcinoma); test: as above
Procedure, shortened: as §1

IM-9 (Non-Cancerous) = test: as above
Procedure, shortened: as §1

[14] = test system: JHU-022 (Oral Cavity Carcinoma); test: as above
Procedure, shortened: as §1

WM1552C (Melanoma) = test: as above
Procedure, shortened: as §1
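Throughout, for Bliss excess, mean over the matrix: after 72 h of two-drug dosing.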

Structure (SMILES) | Bliss excess (769-P (Kidney Carcinoma)) | Bliss excess [1] | Bliss excess [2] | Bliss excess [3] | Bliss excess [4] | Bliss excess (EW-7 (Ewing's Sarcoma)) | Bliss excess [5] | Bliss excess [6] | Bliss excess (KP-N-YN (Neuroblastoma)) | Bliss excess [7] | Bliss excess [8] | Bliss excess [9] | Bliss excess [10] | Bliss excess (PEO1 (Ovarian Carcinoma)) | Bliss excess [11] | combination Emax [12] | combination Emax [13] | combination Emax (IM-9 (Non-Cancerous)) | combination Emax [14] | combination Emax (WM1552C (Melanoma))
COc1nnc2ccc(N3CCC(c4ccc(OCCN5CCN(C)C(=O)[C@H]5C)cc4)CC3)nn12 [AZD5153] + CC1(C)CCC(CN2CCN(c3ccc(C(=O)NS(=O)(=O)c4ccc(NCC5CCOCC5)c([N+](=O)[O-])c4)c(Oc4cnc5[nH]ccc5c4)c3)CC2)=C(c2ccc(Cl)cc2)C1 [Venetoclax] (first compound max 1 µM, 7x7, partner max 1 µM) | -0.0457 | -0.0724 | -0.0394 | -0.0713 | -0.0776 | -0.0122 | -0.0478 | -0.0068 | -0.0809 | -0.015 | -0.046 | -0.0338 | -0.0137 | -0.0771 | -0.0947 | 0.22 | 0.887 | 0.859 | 0.417 | 0.397
COc1nnc2ccc(N3CCC(c4ccc(OCCN5CCN(C)C(=O)[C@H]5C)cc4)CC3)nn12 [AZD5153] + CCN(CCO)CCCOc1ccc2c(Nc3cc(CC(=O)Nc4cccc(F)c4)[nH]n3)ncnc2c1 [AZD2811] (first compound max 1 µM, 7x7, partner max 1 µM) | -0.0217 | -0.0153 | -0.127 | 0.0259 | 0.0002 | 0.0274 | -0.0728 | -0.0496 | -0.0355 | 0.0083 | -0.0345 | 0.004 | -0.0236 | -0.0137 | -0.0742 | 0.444 | 0.593 | 0.897 | 0.452 | 0.444
COc1nnc2ccc(N3CCC(c4ccc(OCCN5CCN(C)C(=O)[C@H]5C)cc4)CC3)nn12 [AZD5153] + C[C@@H]1COCCN1C2=NC(=NC(=C2)C3(CC3)[S@](=N)(=O)C)C4=C5C=CNC5=NC=C4 [AZD6738] (first compound max 1 µM, 7x7, partner max 10 µM) | 0.0196 | 0.0315 | 0.0095 | -0.0554 | 0.0343 | 0.034 | 0.0025 | -0.0066 | -0.0174 | 0.0019 | 0.0074 | 0.0178 | 0.0192 | 0.0911 | 0.0371 | 0.736 | 0.58 | 0.963 | 0.563 | 0.546
COc1nnc2ccc(N3CCC(c4ccc(OCCN5CCN(C)C(=O)[C@H]5C)cc4)CC3)nn12 [AZD5153] + Cc1c2c(nn1C)CSCc1cc(n(C)n1)CSc1cc(c3ccccc3c1)OCCCc1c(C(=O)O)n(C)c3c-2c(Cl)ccc13 [AZD5991] (first compound max 1 µM, 7x7, partner max 1 µM) | -0.0716 | 0.0071 | -0.056 | -0.0124 | -0.0071 | 0.07 | 0.044 | -0.119 | -0.0362 | -0.0229 | -0.0049 | -0.0273 | -0.0179 | -0.0209 | 0.0365 | 0.816 | 0.612 | 0.886 | 0.417 | 0.888
COc1nnc2ccc(N3CCC(c4ccc(OCCN5CCN(C)C(=O)[C@H]5C)cc4)CC3)nn12 [AZD5153] + Cn1cnc2c(F)c(Nc3ccc(Br)cc3Cl)c(C(=O)NOCCO)cc21 [Selumetinib] (first compound max 1 µM, 7x7, partner max 10 µM) | -0.0261 | 0.0009 | -0.0093 | -0.0651 | -0.0727 | -0.032 | -0.0421 | 0.0024 | -0.0967 | 0.123 | -0.0114 | -0.0319 | -0.0338 | -0.0509 | 0.0089 | 0.456 | 0.426 | 0.952 | 0.508 | 0.514
Cc1c2c(nn1C)CSCc1cc(n(C)n1)CSc1cc(c3ccccc3c1)OCCCc1c(C(=O)O)n(C)c3c-2c(Cl)ccc13 [AZD5991] + C1CN(CCC1(C(=O)N[C@@H](CCO)C2=CC=C(C=C2)Cl)N)C3=NC=NC4=C3C=CN4 [Capivasertib] (first compound max 1 µM, 7x7, partner max 3 µM) | -0.0369 | 0.0473 | 0.0073 | -0.0114 | -0.0014 | 0.0459 | 0.0445 | 0.0621 | -0.0382 | 0.0187 | 0.0008 | 0.0279 | -0.0023 | -0.0428 | 0.0196 | 0.92 | 0.442 | 0.756 | 0.356 | 0.929
Cc1c2c(nn1C)CSCc1cc(n(C)n1)CSc1cc(c3ccccc3c1)OCCCc1c(C(=O)O)n(C)c3c-2c(Cl)ccc13 [AZD5991] + C=CCn1c(=O)c2cnc(Nc3ccc(N4CCN(C)CC4)cc3)nc2n1-c1cccc(C(C)(C)O)n1 [AZD1775] (first compound max 1 µM, partner max 1 µM) | -0.071 | 0.0398 | -0.0508 | -0.0098 | 0.0072 | 0.0015 | 0.051 | -0.063 | -0.0247 | 0.0181 | -0.0496 | -0.11 | 0.0171 | 0.0146 | -0.0343 | 0.904 | 0.684 | 0.986 | 0.451 | 0.779
Cc1c2c(nn1C)CSCc1cc(n(C)n1)CSc1cc(c3ccccc3c1)OCCCc1c(C(=O)O)n(C)c3c-2c(Cl)ccc13 [AZD5991] + CC1(C)CCC(CN2CCN(c3ccc(C(=O)NS(=O)(=O)c4ccc(NCC5CCOCC5)c([N+](=O)[O-])c4)c(Oc4cnc5[nH]ccc5c4)c3)CC2)=C(c2ccc(Cl)cc2)C1 [Venetoclax] (first compound max 1 µM, 7x7, partner max 1 µM) | -0.0328 | 0.0088 | -0.0081 | 0.0276 | -0.0209 | 0.0249 | -0.0461 | -0.0156 | 0.0865 | 0.0093 | 0.0733 | -0.0327 | -0.0189 | -0.0145 | 0.0196 | 0.868 | 0.828 | 1 | 0.116 | 0.735
Cc1c2c(nn1C)CSCc1cc(n(C)n1)CSc1cc(c3ccccc3c1)OCCCc1c(C(=O)O)n(C)c3c-2c(Cl)ccc13 [AZD5991] + CN(C)CCCOc1ccc(-c2ccc3ncc4c(c3c2)n(C2CCOCC2)c(=O)n4C)cn1 [AZD0156] (first compound max 1 µM, 7x7, partner max 1 µM) | -0.0089 | 0.0058 | -0.0227 | -0.026 | 0.008 | 0.0313 | 0.0162 | 0.0012 | -0.0752 | -0.0053 | -0.0112 | 0.0042 | 0.0031 | -0.0155 | 0.0465 | 0.908 | 0.716 | 0.608 | 0.172 | 0.76
Cc1c2c(nn1C)CSCc1cc(n(C)n1)CSc1cc(c3ccccc3c1)OCCCc1c(C(=O)O)n(C)c3c-2c(Cl)ccc13 [AZD5991] + C[C@@H]1COCCN1C2=NC(=NC(=C2)C3(CC3)[S@](=N)(=O)C)C4=C5C=CNC5=NC=C4 [AZD6738] (first compound max 1 µM, 7x7, partner max 10 µM) | -0.0333 | 0.0364 | 0.0358 | 0.066 | 0.0276 | 0.0266 | 0.0386 | 0.0115 | -0.0067 | -0.0328 | 0.0135 | 0.0192 | 0.0073 | 0.0062 | 0.0094 | 0.976 | 0.616 | 1 | 0.492 | 0.836
Cc1c2c(nn1C)CSCc1cc(n(C)n1)CSc1cc(c3ccccc3c1)OCCCc1c(C(=O)O)n(C)c3c-2c(Cl)ccc13 [AZD5991] + Cc1cc2ncnn2cc1Nc1ncc2c(n1)n(C1CCOCC1)c(=O)n2C [AZD7648] (first compound max 1 µM, 7x7, partner max 10 µM) | -0.0328 | -0.0286 | -0.057 | 0.0437 | -0.0372 | -0.0105 | 0.0229 | -0.0272 | -0.0516 | 0.0083 | -0.0323 | 0.0096 | -0.0529 | -0.0279 | -0.0259 | 0.849 | 0.554 | 0.561 | 0.245 | 0.71
C[C@@H]1COCCN1c1cc(C2([S@](C)(=N)=O)CC2)nc(-c2ccnc3[nH]ccc23)n1 [AZD6738] + O=C(c1cc(Cc2n[nH]c(=O)c3ccccc23)ccc1F)N1CCN(C(=O)C2CC2)CC1 [Olaparib] (first compound max 10 µM, 7x7, partner max 10 µM) | -0.0656 | 0.0371 | 0.12 | 0.0222 | -0.0081 | -0.0896 | 0.0068 | -0.0152 | -0.203 | -0.0642 | 0.0366 | 0.0418 | 0.0124 | 0.0069 | -0.0422 | 0.806 | 0.148 | 0.986 | 0.563 | 0.679
COc1cccc2c1C(=O)c1c(O)c3c(c(O)c1C2=O)C[C@@](O)(C(=O)CO)C[C@@H]3O[C@H]1C[C@H](N)[C@H](O)[C@H](C)O1 [Doxorubicin] + Cc1cc2ncnn2cc1Nc1ncc2c(n1)n(C1CCOCC1)c(=O)n2C [AZD7648] (first compound max 1 µM, 7x7, partner max 10 µM) | 0.0903 | 0.108 | 0.0853 | 0.11 | 0.032 | 0.0058 | 0.0446 | 0.0229 | 0.0805 | 0.0232 | 0.0697 | 0.024 | 0.0125 | -0.0214 | -0.023 | 0.957 | 0.455 | 1 | 0.858 | 0.793
COc1cccc(OCCCN)c1-c1cc(Nc2cnc(C#N)cn2)n[nH]1 [Prexasertib] + C=CCn1c(=O)c2cnc(Nc3ccc(N4CCN(C)CC4)cc3)nc2n1-c1cccc(C(C)(C)O)n1 [AZD1775] (first compound max 1 µM, partner max 1 µM) | 0.0163 | 0.0877 | 0.0945 | -0.0059 | 0.0278 | 0.0157 | 0.0504 | 0.0869 | 0.0385 | 0.0333 | 0.0402 | 0.0428 | -0.0383 | 0.0825 | 0.0705 | 0.93 | 0.473 | 1 | 0.624 | 0.885
